This experiment addresses T1, Human ENaC δ, β and γ subunit (Homo sapiens, UniProt P51168+P51170+P51172).
T1 construct: expressed in transfected cells; host or cells: Xenopus laevis (African clawed frog) oocytes injected with cRNA
T1 sequence (P51172 1-638 isoform P51172-1): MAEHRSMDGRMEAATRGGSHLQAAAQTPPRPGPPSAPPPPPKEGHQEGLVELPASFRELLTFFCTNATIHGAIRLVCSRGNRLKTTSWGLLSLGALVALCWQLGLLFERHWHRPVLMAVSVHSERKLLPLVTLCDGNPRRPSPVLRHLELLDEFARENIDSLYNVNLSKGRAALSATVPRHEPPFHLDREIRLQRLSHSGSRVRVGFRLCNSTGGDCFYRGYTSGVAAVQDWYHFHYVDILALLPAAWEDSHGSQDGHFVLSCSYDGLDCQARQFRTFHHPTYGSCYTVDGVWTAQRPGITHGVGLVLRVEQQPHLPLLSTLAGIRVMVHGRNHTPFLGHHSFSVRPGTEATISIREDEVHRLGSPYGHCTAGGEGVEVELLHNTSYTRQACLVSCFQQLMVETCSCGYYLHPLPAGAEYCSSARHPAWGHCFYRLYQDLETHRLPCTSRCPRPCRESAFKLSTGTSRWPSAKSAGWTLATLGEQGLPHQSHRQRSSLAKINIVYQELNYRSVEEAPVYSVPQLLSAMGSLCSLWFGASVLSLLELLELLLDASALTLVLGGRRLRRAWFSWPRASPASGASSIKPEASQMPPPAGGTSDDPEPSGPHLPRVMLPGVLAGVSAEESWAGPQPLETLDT
T1 sequence (P51168 1-640): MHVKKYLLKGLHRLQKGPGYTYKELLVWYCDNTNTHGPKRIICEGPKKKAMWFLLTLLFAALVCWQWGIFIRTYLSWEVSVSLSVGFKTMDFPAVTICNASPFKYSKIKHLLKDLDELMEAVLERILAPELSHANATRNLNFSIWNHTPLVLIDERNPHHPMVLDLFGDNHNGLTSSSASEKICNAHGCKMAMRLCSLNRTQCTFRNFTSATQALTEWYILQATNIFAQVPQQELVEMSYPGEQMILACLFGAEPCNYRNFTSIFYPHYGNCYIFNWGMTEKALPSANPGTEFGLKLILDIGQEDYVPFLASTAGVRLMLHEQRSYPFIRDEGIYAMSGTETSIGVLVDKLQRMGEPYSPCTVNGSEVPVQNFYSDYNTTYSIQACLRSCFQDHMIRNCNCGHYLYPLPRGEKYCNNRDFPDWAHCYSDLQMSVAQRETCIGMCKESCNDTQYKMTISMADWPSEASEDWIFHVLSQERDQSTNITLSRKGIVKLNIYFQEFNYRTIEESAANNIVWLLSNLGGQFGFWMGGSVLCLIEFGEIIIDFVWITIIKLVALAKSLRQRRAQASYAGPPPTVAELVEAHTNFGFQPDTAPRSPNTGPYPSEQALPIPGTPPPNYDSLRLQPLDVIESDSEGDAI
T1 sequence (P51170 1-649): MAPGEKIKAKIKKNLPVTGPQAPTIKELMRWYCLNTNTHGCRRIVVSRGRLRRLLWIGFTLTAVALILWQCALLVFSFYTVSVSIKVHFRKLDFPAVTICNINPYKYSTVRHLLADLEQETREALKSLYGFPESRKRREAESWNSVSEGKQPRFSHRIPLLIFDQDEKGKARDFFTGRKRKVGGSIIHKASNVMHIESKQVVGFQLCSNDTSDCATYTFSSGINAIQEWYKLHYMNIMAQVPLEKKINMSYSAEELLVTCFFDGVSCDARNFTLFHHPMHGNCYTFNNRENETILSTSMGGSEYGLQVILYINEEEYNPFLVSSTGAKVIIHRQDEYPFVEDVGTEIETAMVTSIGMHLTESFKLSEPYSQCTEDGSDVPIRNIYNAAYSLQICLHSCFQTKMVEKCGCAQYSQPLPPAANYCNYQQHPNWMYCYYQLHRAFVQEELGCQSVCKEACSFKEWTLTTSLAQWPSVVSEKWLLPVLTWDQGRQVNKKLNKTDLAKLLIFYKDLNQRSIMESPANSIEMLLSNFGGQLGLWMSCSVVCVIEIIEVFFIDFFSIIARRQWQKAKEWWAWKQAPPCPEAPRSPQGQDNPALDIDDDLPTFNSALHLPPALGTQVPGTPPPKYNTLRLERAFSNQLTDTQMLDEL
Nature of the experiment: Measurement of ENaC activation potency (two electrode voltage clamp current in ENaC-expressing oocyte). The experiment is classed as cell-based. The note with it: lowest concentration increasing the current value by not less than 10% vs before addition. The method, then: ENaC activation current value, namely, the inward current in ENaC-expressing oocyte was measured as follows.
According to the method described in Motonao Nakamura, Takao Shimizu: Experiment of African clawed frog oocyte, Experimental Medicine Vol. 11, No. 3, 224-232 (1993), oocyte was collected from African clawed frog, […], and the current value was measured by a Two Electrode Voltage Clamp technique. In the present invention, ND96 (96 mM NaCl, 2 mM KCl, 1 mM MgCl2, 5 mM Hepes, 1.8 mM CaCl2, pH 7.6) was used instead of MBS buffer in the above-mentioned document. Injector NANOLITER 2000 manufactured by World Precision Instruments was used for microinjection, OpusXpress 6000A manufactured by Molecular Devices was used for current value measurement by a Two Electrode Voltage Clamp technique, and Clampfit 10.2 software manufactured by Molecular Devices was used for data analysis.
Human ENaC δ, β and γ subunit genes shown by SEQ ID NOs: 1, 2 and 3, respectively, in the Sequence Listing were each cloned into a plasmid vector, and used as a template DNA for cRNA synthesis. cRNA was synthesized using MEGAscript kit manufactured by Ambion and according to the method of the manual of the manufacturer.
A mixture of the same amount of ENaC δ subunit cRNA (0.4 to 0.8 μg/μL), and β and γ subunits cRNA (0.4 μg/μL) was injected into the oocyte of African clawed frog at 27.6 nL per oocyte, and the oocyte was cultured for 16 hours to 72 hours. Thereafter, the oocyte was set on a measuring apparatus OpusXpress 6000A, the electrodes were inserted into the oocyte, the voltage was clamped at a level lower by −30 mV than the resting membrane potential by a Two Electrode Voltage Clamp technique, and the current value was measured.
To measure the ENaC activation potency, oocyte was stimulated with each test compound, and the minimum effective dose (hereinafter to be abbreviated as MED) of the compound at the time point when the electric current started to increase was measured. In this case, the minimum effective dose of the stimulation compound that increased the current value by not less than 10%, as compared to the current value before addition of the compound and without stimulation, was taken as MED. A smaller MED means higher ENaC activation potency.
Each test compound was directly dissolved in ND96, or first dissolved in dimethyl sulfoxide (DMSO) to 100 mM, and then prepared by diluting the solution with ND96 to a concentration used for the evaluation. The concentration of the test compound in ND96 was prepared to various concentrations within the range of 0.1 nM to 300 μm.
ND96 as a perfusion fluid was flowed at a rate of 0.5 mL/min through the measuring apparatus OpusXpress 6000A on which ENaC-expressing oocyte was set, the perfusion fluid was temporarily stopped every 3 minutes to add a test compound solution (0.25 mL) dissolved in ND96 at a rate of 0.5 mL/minute. In this way, the test compound was contacted with ENaC-expressing oocyte, and whether ENaC is activated by the compound was examined by measuring the current value. After addition of the test compound, feeding of the perfusion fluid was resumed to wash away the compound to be ready for the next addition of the compound.
The compound was added successively from a low concentration to a high concentration to stimulate ENaC-expressing oocyte. The concentrations actually added was, for example, 1 nM, 3 nM, 10 nM, 30 nM, 100 nM, 300 nM; 1 μM, 3 μM, 10 μm, 30 μm, 100 μm, 300 μm; 1.2 μM, 6 μM, 30 μm, 150 μm of one test compound. The compound was added from low concentrations to high concentrations at 3 minute intervals. The first compound was added from a low concentration to a high concentration, then the second and the third compounds were similarly added successively to the same oocyte, and changes in the current value were measured. The current value was continuously measured from the start to the end of the experiment. […]
On the technique in general: Two-electrode voltage clamp holds a large cell at a set potential and records current.
For the compound `CC(C)(C)OC(=O)NC(Cc1c[nH]c2ccccc12)C(=O)Nc1c(O)cccc1O` (stereo in doubt) [Example 21, tert-butyl (S)-1-(2,6-dihydroxyphenylcarbamoyl)-2-(1H-indol-3-yl)ethylcarbamate], the “MED value (minimum effective dose)” value worked out at 10 µM.
The figure for `COC(=O)[C@H](Cc1c[nH]c2ccccc12)NC(=O)c1c(O)cccc1O` [Example 1, (S)-Methyl 2-(2,6-dihydroxybenzamido)-3-(1H-indol-3-yl)propanoate] is 0.6 µM.
The figure for `COC(=O)[C@@H](Cc1c[nH]c2ccccc12)NC(=O)c1c(O)cccc1O` [Example 2] is 0.6 µM; for `O=C(N[C@@H](Cc1c[nH]c2ccccc12)C(=O)O)c1c(O)cccc1O` [Example 3] it is 0.6 µM.
Turning to `O=C(N[C@H](Cc1c[nH]c2ccccc12)C(=O)O)c1c(O)cccc1O` [Example 4], the “MED value (minimum effective dose)” value came to 0.6 µM.
The value for `O=C(NCCc1c[nH]c2ccc(O)cc12)c1ccccc1O` [Example 6] was 3 µM; that for `O=C(O)c1ccccc1C(=O)NCCc1c[nH]c2ccc(O)cc12` [Example 9] was 3 µM.
The value for `COC(=O)[C@H](Cc1c[nH]c2ccc(O)cc12)NC(=O)c1c(O)cccc1O` [Example 10] was 3 µM; that for `COC(=O)[C@H](Cc1cn(C)c2ccccc12)NC(=O)c1c(O)cccc1O` [Example 11] was 3 µM; that for `O=C(N[C@@H](Cc1c[nH]c2ccc(O)cc12)C(=O)O)c1c(O)cccc1O` [Example 12] was 3 µM.
`O=C(N[C@H](CO)Cc1c[nH]c2ccccc12)c1c(O)cccc1O` [Example 14]: the “MED value (minimum effective dose)” value was 1 µM.
The figure for `O=C(N[C@@H](Cc1c[nH]c2ccccc12)C(=O)OCc1ccccc1)c1c(O)cccc1O` [Example 15] is 10 µM; for `COC(=O)C(C)(Cc1c[nH]c2ccccc12)NC(=O)c1c(O)cccc1O` (stereo not shown) [Example 16] it is 3 µM; for `COC(=O)C(Cc1c[nH]c2cc(F)ccc12)NC(=O)c1c(O)cccc1O` (stereo not shown) [Example 17] it is 1 µM.
The figure for `CC(Cc1c[nH]c2ccccc12)(NC(=O)c1c(O)cccc1O)C(=O)O` (stereo not shown) [Example 18] is 3 µM.
As for `O=C(NC(Cc1c[nH]c2cc(F)ccc12)C(=O)O)c1c(O)cccc1O` (stereo not shown) [Example 19], the “MED value (minimum effective dose)” value was found to be 1 µM.
In the case of `CC(C)(C)OC(=O)N[C@@H](Cc1c[nH]c2ccccc12)C(=O)Nc1c(O)cccc1O` [Example 20], the “MED value (minimum effective dose)” value is 10 µM.
Regarding `N[C@@H](Cc1c[nH]c2ccccc12)C(=O)Nc1c(O)cccc1O` [Example 22], the “MED value (minimum effective dose)” value is 3 µM.
As for `N[C@H](Cc1c[nH]c2ccccc12)C(=O)Nc1c(O)cccc1O` [Example 23], the “MED value (minimum effective dose)” value is 10 µM.
The figure for `COc1cccc(OC)c1C(=O)NCCc1c[nH]c2ccc(O)cc12` [Example 25] is 3 µM; for `O=C(NCCc1c[nH]c2ccc(O)cc12)c1c(C(F)(F)F)cccc1C(F)(F)F` [Example 26] it is 6 µM; for `O=C(NCCc1c[nH]c2ccc(O)cc12)c1c(Cl)cccc1Cl` [Example 27] it is 3 µM.
With `O=C(NCCc1c[nH]c2ccc(O)cc12)c1c(O)cc(O)cc1O` [Example 28], the “MED value (minimum effective dose)” value is 1 to 3 µM.
The figure for `Cc1cc(O)c(C(=O)NCCc2c[nH]c3ccc(O)cc23)c(O)c1` [Example 29] is 1 to 3 µM; for `O=C(NCCc1c[nH]c2ccc(O)cc12)c1cccc(O)c1O` [Example 32] it is 1.2-6^ μM.
As for `O=C(NC(Cc1c[nH]c2ccccc12)C(=O)O)c1cccc(O)c1O` (stereo not shown) [Example 39], the “MED value (minimum effective dose)” value came out at 1 µM.
In the case of `O=C(N[C@H](Cc1c[nH]c2ccccc12)C(=O)O)c1cc(O)ccc1O` [Example 41], the “MED value (minimum effective dose)” value came out at 1 µM.
`O=C(NCCc1c[nH]c2ccccc12)c1cc(O)ccc1O` [Example 42]: the “MED value (minimum effective dose)” value was 1 to 3 µM.
`O=C(CCc1ccccc1)N[C@@H](Cc1c[nH]c2ccccc12)C(=O)O` [Example 63]: the “MED value (minimum effective dose)” value lay within 1 to 3 µM.
The figure for `COc1ccc(CCC(=O)N[C@@H](Cc2c[nH]c3ccccc23)C(=O)O)cc1` [Example 65] is 3 µM.
The figure for `O=C(CCc1ccc2c(c1)OCO2)N[C@@H](Cc1c[nH]c2ccccc12)C(=O)O` [Example 66] is 3 µM.

Values taken from US20130196050A1, “SALTY TASTE ENHANCER” (AJINOMOTO CO., INC., priority 2010, published 2013).
